# Key:
# cell toxicity CC50 = type: cell-based; settings: human; Hep-G2 cells; mean of at least two experiments; read-out: Cell Cytotoxicity CC50
# [1] = test system: RSV (RSV A2 ECACC, 0709161v); experiment: RSV plaque reduction assay; type: cell-based, respiratory syncytial virus; settings: human respiratory syncytial virus, HepG2, read-out: RSV A2 Plaque EC50, RSV A2 in Hep-G2 cells; mean of at least two experiments unless noted (n = 1)
# Experimental: Compounds w ere subjected to RSV plaque reduction assays according to the following protocol.
# Hep-G2 cells (ECACC, 85011430) were passaged in flasks and seeded in 24-well plates in DMEM containing antibiotics and supplemented with 10% FBS. During inoculation and subsequent incubation, cells were cultured in DMEM containing 2% FBS. 100 plaque forming unit/well of RSV (RSV A2 ECACC, 0709161v) was mixed with eight serial dilutions of compound. Subsequently, 100 μL of the virus/compound mixtures was added to confluent Hep-G2 cell monolayers. The cells and virus/compound mixtures were incubated at 37° C. in a humidified 5% CO2 incubator for 2 h prior to removal of the inoculum and addition of 1 mL of overlay (DMEM containing 2% FBS and 0.8% CMC) containing compound dilutions. The cells and were incubated at 37° C. in a humidified 5% CO2 incubator for 2 days.
# Cells were washed with PBS before adding 75/25% v/v EtOH MeOH, for 3 min. Fixative was removed and plates were washed with PBS. A pre-titrated amount of the primary antibody was added in 200 μL PBS/2% milk powder, and plates incubated for 90 min at 37° C. The plates were washed 3 times with PBS/0.05% Tween20 before addition of rabbit anti-goat horse radish peroxidase in 200 μL PBS/2% milk powder, and incubated for 1 h at 37° C. Following three wash steps with PBS/0.05% Tween20, 200 μL ready-to-use TrueBlue was added and plates were incubated at rt for 10-15 min before washing with water. After removal of water, plates were air-dried in the dark.
# Plates were scanned and analysed using the Immunospot S6 Macro analyser, which is equipped with BioSpot analysis software for counting immunostained plaques (virospots). Plaque counts were used to calculate % infection relative to the mean of the plaque count in the virus control wells for RSV. […] Unless otherwise noted, plaque EC50 and cell toxicity CC50 values are a mean of at least two experiments and figures are rounded to whole units.
Structure (SMILES),CC50 (cell toxicity CC50) [nM],EC50 [1] [nM]
"O=C(N[C@H]1N=C(c2ccccc2)c2ccccc2NC1=O)c1nn2c(c1-c1ccccc1F)OCCC2 [Example 36, 3-(2-Fluorophenyl)-N-[(3S)-2-oxo-5-phenyl-1,3-dihydro-1,4-benzodiazepin-3-yl]-6,7-dihydro-5H-pyrazolo[5,1-b][1,3]oxazine-2-carboxamide]",> 25000,444
O=C(N[C@H]1N=C(c2ccccc2)c2ccccc2NC1=O)c1c(-c2ccccc2F)nn2c1OCC1(COC1)C2 [Example 29],> 25000,78
"C[C@@H]1CCn2nc(-c3ccc(N4C[C@@H]5C[C@H]4CO5)nc3F)c(C(=O)N[C@H]3N=C(c4ccccc4)c4cccc(F)c4NC3=O)c2O1 (single isomer, unassigned) [Example 88]",> 25000,146
"CCS(=O)(=O)c1ccc(-c2nn3c(c2C(=O)N[C@H]2N=C(c4ccccc4)c4cccc(F)c4NC2=O)O[C@H](C)CC3)c(F)c1 [Example 197, (5R)-2-(4-Ethylsulfonyl-2-fluorophenyl)-N-[(3S)-9-fluoro-2-oxo-5-phenyl-1,3-dihydro-1,4-benzodiazepin-3-yl]-5-methyl-6,7-dihydro-5H-pyrazolo[5,1-b][1,3]oxazine-3-carboxamide]",> 25000,97
"O=C(N[C@H]1N=C(c2ccccc2)c2cccc(F)c2NC1=O)c1c(-c2ccccc2F)nn2c1OC1(CC2)CC1 [Example 7, N-[(3S)-9-fluoro-2-oxo-5-phenyl-1,3-dihydro-1,4-benzodiazepin-3-yl]-2-(2-fluorophenyl)spiro[6,7-dihydropyrazolo[5,1-b][1,3]oxazine-5,1′-cyclopropane]-3-carboxamide]",> 25000,32
"O=C(N[C@H]1N=C(c2ccccc2)c2cccc(F)c2NC1=O)c1c(-c2ccc(F)cc2F)nn2c1S(=O)(=O)CCC2 [Example 32, 2-(2,4-Difluorophenyl)-N-[(3S)-9-fluoro-2-oxo-5-phenyl-2,3-dihydro-1H-1,4-benzodiazepin-3-yl]-4,4-dioxo-5H,6H,7H-4λ^6-pyrazolo[3,2-b][1,3]thiazine-3-carboxamide]",> 25000,411
"CCS(=O)(=O)N1CCC(c2nn3c(c2C(=O)N[C@H]2N=C(c4ccccc4)c4cccc(F)c4NC2=O)O[C@H](C)CC3)CC1 [Example 201, (5R)-2-(1-Ethylsulfonylpiperidin-4-yl)-N-[(3S)-9-fluoro-2-oxo-5-phenyl-1,3-dihydro-1,4-benzodiazepin-3-yl]-5-methyl-6,7-dihydro-5H-pyrazolo[5,1-b][1,3]oxazine-3-carboxamide]",> 25000,49
"C[C@@H]1CCn2nc(-c3ccoc3)c(C(=O)N[C@H]3N=C(c4ccccc4)c4cccc(F)c4NC3=O)c2O1 [Example 61, (5R)-N-[(3S)-9-fluoro-2-oxo-5-phenyl-1,3-dihydro-1,4-benzodiazepin-3-yl]-2-(3-furyl)-5-methyl-6,7-dihydro-5H-pyrazolo[5,1-b][1,3]oxazine-3-carboxamide]",> 25000,161
"C[C@@H]1CCn2nc(-c3ccc(S(N)(=O)=O)cc3F)c(C(=O)N[C@H]3N=C(c4ccccc4)c4cccc(F)c4NC3=O)c2O1 [Example 199, (5R)-N-[(3S)-9-Fluoro-2-oxo-5-phenyl-1,3-dihydro-1,4-benzodiazepin-3-yl]-2-(2-fluoro-4-sulfamoylphenyl)-5-methyl-6,7-dihydro-5H-pyrazolo[5,1-b][1,3]oxazine-3-carboxamide]",> 25000,64
"CCc1ccc(-c2nn3c(c2C(=O)N[C@H]2N=C(c4ccccc4)c4cccc(F)c4NC2=O)O[C@H](C)CC3)cn1 [Example 74, (5R)-2-(6-Ethylpyridin-3-yl)-5-methyl-N-[(3S)-9-fluoro-2-oxo-5-phenyl-1,3-dihydro-1,4-benzodiazepin-3-yl]-6,7-dihydro-5H-pyrazolo[5,1-b][1,3]oxazine-3-carboxamide]",> 25000,39
"O=C(N[C@H]1N=C(c2ccccc2)c2cccc(F)c2NC1=O)c1c(C2CC2)nn2c1OCCC2 [Example 45, 2-Cyclopropyl-N-[(3S)-9-fluoro-2-oxo-5-phenyl-1,3-dihydro-1,4-benzodiazepin-3-yl]-6,7-dihydro-5H-pyrazolo[5,1-b][1,3]oxazine-3-carboxamide]",> 25000,301
"C[C@@H]1CCn2nc(-c3cnn(CC(F)(F)F)c3)c(C(=O)N[C@H]3N=C(c4ccccc4)c4cccc(F)c4NC3=O)c2O1 [Example 118, (5R)-N-[(3S)-9-fluoro-2-oxo-5-phenyl-1,3-dihydro-1,4-benzodiazepin-3-yl]-5-methyl-2-[1-(2,2,2-trifluoroethyl)pyrazol-4-yl]-6,7-dihydro-5H-pyrazolo[5,1-b][1,3]oxazine-3-carboxamide]",> 25000,43
"Cc1cc(NC(C)C)ncc1-c1nn2c(c1C(=O)N[C@H]1N=C(c3ccccc3)c3cccc(F)c3NC1=O)O[C@H](C)CC2 [Example 92, (5R)-5-Methyl-2-[4-methyl-6-(propan-2-ylamino)pyridin-3-yl]-N-[(3S)-9-fluoro-2-oxo-5-phenyl-1,3-dihydro-1,4-benzodiazepin-3-yl]-6,7-dihydro-5H-pyrazolo[5,1-b][1,3]oxazine-3-carboxamide]",> 25000,131
"O=C(N[C@H]1N=C(c2ccccc2)c2cccc(F)c2NC1=O)c1c(-c2ccccc2)nn2c1OCCC2 [Example 23, N-[(3S)-9-fluoro-2-oxo-5-phenyl-1,3-dihydro-1,4-benzodiazepin-3-yl]-2-phenyl-6,7-dihydro-5H-pyrazolo[5,1-b][1,3]oxazine-3-carboxamide]",> 25000,60
"C[C@@H]1CCn2nc(-c3ccccc3)c(C(=O)N[C@H]3N=C(c4ccccc4)c4cccc(F)c4NC3=O)c2O1 [Example 81, (5R)-5-Methyl-2-phenyl-N-[(3S)-9-fluoro-2-oxo-5-phenyl-1,3-dihydro-1,4-benzodiazepin-3-yl]-6,7-dihydro-5H-pyrazolo[5,1-b][1,3]oxazine-3-carboxamide]",> 25000,84
"Cc1cnc(F)c(-c2nn3c(c2C(=O)N[C@H]2N=C(c4ccccc4)c4ccccc4NC2=O)OCCC3)c1 [Example 42, 2-(2-Fluoro-5-methylpyridin-3-yl)-N-[(3S)-2-oxo-5-phenyl-1,3-dihydro-1,4-benzodiazepin-3-yl]-6,7-dihydro-5H-pyrazolo[5,1-b][1,3]oxazine-3-carboxamide]",> 25000,124
"CC(C)Nc1ccc(-c2nn3c(c2C(=O)N[C@H]2N=C(c4ccccc4)c4cccc(F)c4NC2=O)O[C@H](C)CC3)c(F)n1 [Example 30, (5R)-N-[(3S)-9-fluoro-2-oxo-5-phenyl-1,3-dihydro-1,4-benzodiazepin-3-yl]-2-[2-fluoro-6-(propan-2-ylamino)pyridin-3-yl]-5-methyl-6,7-dihydro-5H-pyrazolo[5,1-b][1,3]oxazine-3-carboxamide]",> 25000,16
"CC(C)C1CCn2nc(-c3ccccc3F)c(C(=O)N[C@H]3N=C(c4ccccc4)c4cccc(F)c4NC3=O)c2O1 (stereo partly drawn) [Example 8, N-[(3S)-9-fluoro-2-oxo-5-phenyl-2,3-dihydro-1H-1,4-benzodiazepin-3-yl]-2-(2-fluorophenyl)-5-(propan-2-yl)-5H,6H,7H-pyrazolo[3,2-b][1,3]oxazine-3-carboxamide]",> 25000,37

# Source: patent US12678446B2 (PFIZER INC., priority 2020, dated 2026)
